Tests used:
Format in all cases: cell-based
K-562 = experiment: SRB colorimetric cell growth inhibition assay, K-562; settings: Homo sapiens, K562, K-562; for GI50: GI=growth inhibition, read-out: GI50 K-562; for CC50: cell killing (cytotoxic effect), read-out: LC50 K-562; for IC (TGI): total growth inhibition (cytostatic effect), read-out: TGI K-562
From the text: (§1) The finality of these assays is to interrupt the growth of an “in vitro” tumor cell culture by means a continued exhibition of the cells to the sample to be testing.
(§2) A colorimetric type of assay, using sulforhodamine B (SRB) reaction has been adapted for a quantitative measurement of cell growth and viability (following the technique described by P. A. Skehan, et al., J. Natl. Cancer Inst. 1990, 82, 1107-1112).
(§3) This form of assay employs 96 well cell culture microplates of 9 mm diameter (T. Mosmann et al., J. of Immunological Methods 1983, 65, 55-63; G. T. Faircloth et al., J. of Tissue and Culture Methods 1988, 11, 201-205).
(§4) Most of the cell lines are obtained from American Type Culture Collection (ATCC) derived from different human cancer types.
(§5) The values for mean +/− SD of data from triplicate wells are calculated. Some parameters for cellular responses can be calculated: GI=growth inhibition, TGI=total growth inhibition (cytostatic effect) and LC=cell killing (cytotoxic effect).

A-549 = experiment: SRB colorimetric cell growth inhibition assay, A-549; settings: Homo sapiens, A549, A-549; for GI50: GI=growth inhibition, read-out: GI50 A-549; for CC50: cell killing (cytotoxic effect), read-out: LC50 A-549; for IC (TGI): total growth inhibition (cytostatic effect), read-out: TGI A-549
Outline: (§6)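 Growth inhibition (GI), cytostatic total growth inhibition (TGI) and cytotoxic cell-kill (LC) parameters were calculated from SRB-stained cultures held under constant compound exposure, triplicates averaged.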

SK-MEL-28 = experiment: SRB colorimetric cell growth inhibition assay, SK-MEL-28; settings: Homo sapiens, SK-MEL-28, MEL-28
Outline: as §6

HT-29 = experiment: SRB colorimetric cell growth inhibition assay, HT-29; settings: Homo sapiens, HT-29, HT-29; for GI50: GI=growth inhibition, read-out: GI50 HT-29; for CC50: cell killing (cytotoxic effect), read-out: LC50 HT-29; for IC (TGI): total growth inhibition (cytostatic effect), read-out: TGI HT-29
Outline: as §6

LoVo = experiment: SRB colorimetric cell growth inhibition assay, LoVo; settings: Homo sapiens, LoVo; for GI50: GI=growth inhibition, read-out: GI50 LOVO; for CC50: cell killing (cytotoxic effect), read-out: LC50 LOVO; for IC (TGI): total growth inhibition (cytostatic effect), read-out: TGI LOVO
Outline: as §6

LoVo-Dox = experiment: SRB colorimetric cell growth inhibition assay, LoVo-Dox (MDR); settings: Homo sapiens, LOVO-DOX; for GI50: GI=growth inhibition, read-out: GI50 LOVO-DOX; for CC50: cell killing (cytotoxic effect), read-out: LC50 LOVO-DOX; for IC (TGI): total growth inhibition (cytostatic effect), read-out: TGI LOVO-DOX
Outline: as §6

DU-145 = experiment: SRB colorimetric cell growth inhibition assay, DU-145; settings: Homo sapiens, DU-145, DU-145; for GI50: GI=growth inhibition, read-out: GI50 DU-145; for CC50: cell killing (cytotoxic effect), read-out: LC50 DU-145; for IC (TGI): total growth inhibition (cytostatic effect), read-out: TGI DU-145
Outline: as §6

LNCaP = experiment: SRB colorimetric cell growth inhibition assay, LNCaP; settings: Homo sapiens, LNCaP, LN-caP; for GI50: GI=growth inhibition, read-out: GI50 LN-caP; for CC50: cell killing (cytotoxic effect), read-out: LC50 LN-caP; for IC (TGI): total growth inhibition (cytostatic effect), read-out: TGI LN-caP
From the text: as §1, §2, §3, §4, §5

IGROV = experiment: SRB colorimetric cell growth inhibition assay, IGROV; settings: Homo sapiens, IGROV; for GI50: GI=growth inhibition, read-out: GI50 IGROV; for CC50: cell killing (cytotoxic effect), read-out: LC50 IGROV; for IC (TGI): total growth inhibition (cytostatic effect), read-out: TGI IGROV
Outline: as §6

IGROV-ET = experiment: SRB colorimetric cell growth inhibition assay, IGROV-ET (ET-743 resistant); settings: Homo sapiens, IGROV-ET; for GI50: GI=growth inhibition, read-out: GI50 IGROV-ET; for CC50: cell killing (cytotoxic effect), read-out: LC50 IGROV-ET; for IC (TGI): total growth inhibition (cytostatic effect), read-out: TGI IGROV-ET
Outline: as §6

HeLa = experiment: SRB colorimetric cell growth inhibition assay, HeLa; settings: Homo sapiens, HeLa; for GI50: GI=growth inhibition, read-out: GI50 HELA; for CC50: cell killing (cytotoxic effect), read-out: LC50 HELA; for IC (TGI): total growth inhibition (cytostatic effect), read-out: TGI HELA
Outline: as §6

HeLa-APL = experiment: SRB colorimetric cell growth inhibition assay, HeLa-APL (aplidine resistant); settings: Homo sapiens, HELA-APL; for GI50: GI=growth inhibition, read-out: GI50 HELA-APL; for CC50: cell killing (cytotoxic effect), read-out: LC50 HELA-APL; for IC (TGI): total growth inhibition (cytostatic effect), read-out: TGI HELA-APL
Outline: as §6

PANC-1 = experiment: SRB colorimetric cell growth inhibition assay, PANC-1; settings: Homo sapiens, PANC-1, PANC-1; for GI50: GI=growth inhibition, read-out: GI50 PANC-1; for CC50: cell killing (cytotoxic effect), read-out: LC50 PANC-1; for IC (TGI): total growth inhibition (cytostatic effect), read-out: TGI PANC-1
Outline: as §6

SK-BR-3 = experiment: SRB colorimetric cell growth inhibition assay, SK-BR-3; settings: Homo sapiens, SK-BR-3, SK-BR-3
Outline: as §6

SMILES	GI50 (K-562) [µM]	CC50 (K-562) [µM]	IC (TGI) (K-562) [µM]	GI50 (A-549) [µM]	CC50 (A-549) [µM]	IC (TGI) (A-549) [µM]	GI50 (HT-29) [µM]	CC50 (HT-29) [µM]	IC (TGI) (HT-29) [µM]	GI50 (LoVo) [µM]	CC50 (LoVo) [µM]	IC (TGI) (LoVo) [µM]	GI50 (LoVo-Dox) [µM]	CC50 (LoVo-Dox) [µM]	IC (TGI) (LoVo-Dox) [µM]	GI50 (DU-145) [µM]	CC50 (DU-145) [µM]	IC (TGI) (DU-145) [µM]	GI50 (LNCaP) [µM]	CC50 (LNCaP) [µM]	also measured
COc1cc2c(cc1O)oc(=O)c1c2c(-c2ccc(OC)c(OC)c2)c2c3cc(OC)c(O)cc3ccn21 [Compound 233]	0.0958	8.61	1.09	0.312	19.5	2.06	19.5	19.5	19.5	0.545	19.5	1.31	1.05	19.5	15.4	0.0783	19.5	0.18	0.126	3.72	GI50 (SK-MEL-28; GI=growth inhibition, read-out: GI50 MEL-28): 0.169 µM; CC50 (SK-MEL-28; cell killing (cytotoxic effect), read-out: LC50 MEL-28): 19.5 µM; IC (TGI) (SK-MEL-28; total growth inhibition (cytostatic effect), read-out: TGI MEL-28): 4.75 µM; IC (TGI) (LNCaP): 0.557 µM; GI50 (IGROV): 0.0499 µM; CC50 (IGROV): 19.5 µM; IC (TGI) (IGROV): 0.142 µM; GI50 (IGROV-ET): 0.107 µM; CC50 (IGROV-ET): 19.5 µM; IC (TGI) (IGROV-ET): 0.721 µM; GI50 (HeLa): 0.191 µM; CC50 (HeLa): 16 µM; IC (TGI) (HeLa): 3.82 µM; GI50 (HeLa-APL): 0.417 µM; CC50 (HeLa-APL): 14.3 µM; IC (TGI) (HeLa-APL): 3.15 µM; GI50 (PANC-1): 0.341 µM; CC50 (PANC-1): 19.5 µM; IC (TGI) (PANC-1): 19.5 µM
COc1cc(-c2c3n(c4c(=O)[nH]c5cc(O)c(OC)cc5c24)CCc2cc(O)c(OC)cc2-3)ccc1O [Compound 4]	0.396	4.44	0.937	0.543	10	1.21	2.5	14.6	6.03	0.468	4.36	1.08	2	17.8	5.95	0.218	2.14	0.667	0.332	1.85	IC (TGI) (LNCaP): 0.785 µM; GI50 (SK-BR-3; GI=growth inhibition, read-out: GI50 SK-BR-3): 0.338 µM; CC50 (SK-BR-3; cell killing (cytotoxic effect), read-out: LC50 SK-BR-3): 1.47 µM; IC (TGI) (SK-BR-3; total growth inhibition (cytostatic effect), read-out: TGI SK-BR-3): 0.703 µM; GI50 (IGROV): 0.402 µM; CC50 (IGROV): 11.3 µM; IC (TGI) (IGROV): 2 µM; GI50 (IGROV-ET): 0.599 µM; CC50 (IGROV-ET): 13.1 µM; IC (TGI) (IGROV-ET): 1.64 µM; GI50 (HeLa): 0.338 µM; CC50 (HeLa): 1.39 µM; IC (TGI) (HeLa): 0.685 µM; GI50 (HeLa-APL): 0.238 µM; CC50 (HeLa-APL): 1.95 µM; IC (TGI) (HeLa-APL): 0.681 µM; GI50 (PANC-1): 0.48 µM; CC50 (PANC-1): 5.99 µM; IC (TGI) (PANC-1): 1.34 µM

From patent US7396837B2, “Antitumoral analogs of lamellarins” (Pharma Mar, S.A.U., priority 2002, dated 2008)
